Experimental data from patent US10537558B2 (Bantam Pharmaceutical, LLC, priority 2015, dated 2020).
Where two headings read alike, the source gives them in different places.

Test system: BJAB cells
Test: BJAB cell proliferation (Cell Titer Glo)
Type: cell-based
How it was run: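 EC50 values come from non-linear regression of luminescence (Cell Titer Glo), expressed relative to untreated wells. BJAB cells were incubated roughly 72 h at 37 °C with serial compound dilutions carrying 0.1% final DMSO.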

Row | SMILES | EC50 (Homo sapiens, read-out: EC50) [µM] | EC50
1 | Cc1nn(-c2nc(-c3cc(F)c(Cl)c(F)c3)c(SC(C)C)s2)c(C(=O)O)c1-c1cccc(F)c1 [Compound 193, 1-(4-(4-chloro-3,5-difluorophenyl)-5-(isopropylthio)thiazol-2-yl)-4-(3-fluorophenyl)-3-methyl-1H-pyrazole-5-carboxylic Acid] | 1 to 5 | –
2 | COc1cc(-c2nc(-n3nc(C)c(-c4cc(C)nc(C)c4)c3C(=O)O)sc2SC(C)C)ccc1Cl [Compound 194, 1-(4-(4-chloro-3-methoxyphenyl)-5-(isopropylthio)thiazol-2-yl)-4-(2,6-dimethylpyridin-4-yl)-3-methyl-1H-pyrazole-5-carboxylic Acid] | 1 to 5 | –
3 | COc1cc(-c2nc(-n3nc(C)c(-c4cccc(F)c4)c3C(=O)O)sc2SC(C)C)ccc1Cl [Compound 195, 1-(4-(4-chloro-3-methoxyphenyl)-5-(isopropylthio)thiazol-2-yl)-4-(3-fluorophenyl)-3-methyl-1H-pyrazole-5-carboxylic Acid] | 5 to 10 | –
4 | Cc1cc(-c2c(C)nn(-c3nc(-c4ccc(C(F)(F)F)cc4)c(SC(C)C)s3)c2C(=O)O)cc(C)n1 [Compound 196, 4-(2,6-dimethylpyridin-4-yl)-1-(5-(isopropylthio)-4-(4-(trifluoromethyl)phenyl)thiazol-2-yl)-3-methyl-1H-pyrazole-5-carboxylic Acid] | 1 to 5 | –
5 | Cc1nn(-c2nc(-c3ccc(C(F)(F)F)cc3)c(SC(C)C)s2)c(C(=O)O)c1-c1cccc(F)c1 [Compound 197, 4-(3-fluorophenyl)-1-(5-(isopropylthio)-4-(4-(trifluoromethyl)phenyl)thiazol-2-yl)-3-methyl-1H-pyrazole-5-carboxylic Acid] | < 1 | –
6 | COc1cc(-c2c(C)nn(-c3nc(-c4ccc(Cl)c(Cl)c4)c(SC(C)C)s3)c2C(=O)O)cc(C)n1 [Compound 199, 1-(4-(3,4-dichlorophenyl)-5-(isopropylthio)thiazol-2-yl)-4-(2-methoxy-6-methylpyridin-4-yl)-3-methyl-1H-pyrazole-5-carboxylic Acid] | 1 to 5 | –
7 | Cc1nn(-c2nc(-c3ccc(Cl)c(Cl)c3)c(SC(C)C)s2)c(C(=O)O)c1-c1cc(F)cc(OC2COC2)c1 [Compound 200, 1-(4-(3,4-dichlorophenyl)-5-(isopropylthio)thiazol-2-yl)-4-(3-fluoro-5-(oxetan-3-yloxy)phenyl)-3-methyl-1H-pyrazole-5-carboxylic Acid] | 1 to 5 | –
8 | Cc1nn(-c2nc(-c3cccc(F)c3)c(SC(C)C)s2)c(C(=O)O)c1-c1cccc(F)c1 [Compound 201a] | 25 to 50 | –
9 | Cc1nn(-c2nc(-c3cc4ccccc4o3)c(SC(C)C)s2)c(C(=O)O)c1-c1cccc(F)c1 [Compound 201b] | 10 to 25 | –
10 | Cc1nn(-c2nc(-c3ccccc3)c(SC(C)C)s2)c(C(=O)O)c1-c1cccc(F)c1 [Compound 202, 4-(3-fluorophenyl)-1-(5-(isopropylthio)-4-phenylthiazol-2-yl)-3-methyl-1H-pyrazole-5-carboxylic acid] | 10 to 25 | –
11 | Cc1nn(-c2nc(-c3ccccc3)c(SC(C)C)s2)c(C(=O)O)c1-c1cnn(C)c1 [Compound 203, 1-(5-(isopropylthio)-4-phenylthiazol-2-yl)-1′,3-dimethyl-1H,1′H-[4,4′-bipyrazole]-5-carboxylic acid] | > 40 | –
12 | Cc1cc(-c2c(C)nn(-c3nc(-c4ccc(F)cc4)c(SC(C)C)s3)c2C(=O)O)cc(C)n1 [Compound 204, 4-(2,6-dimethylpyridin-4-yl)-1-(4-(4-fluorophenyl)-5-(isopropylthio)thiazol-2-yl)-3-methyl-1H-pyrazole-5-carboxylic acid] | 1 to 5 | –
13 | COc1cc(Cl)ccc1-c1nc(-n2nc(C)c(-c3cccc(F)c3)c2C(=O)O)sc1SC(C)C [Compound 205, 1-(4-(4-chloro-2-methoxyphenyl)-5-(isopropylthio)thiazol-2-yl)-4-(3-fluorophenyl)-3-methyl-1H-pyrazole-5-carboxylic acid] | 1 to 5 | –
14 | COc1cc(Cl)ccc1-c1nc(-n2nc(C)c(-c3cc(C)nc(C)c3)c2C(=O)O)sc1SC(C)C [Compound 206, 1-(4-(4-chloro-2-methoxyphenyl)-5-(isopropylthio)thiazol-2-yl)-4-(2,6-dimethylpyridin-4-yl)-3-methyl-1H-pyrazole-5-carboxylic Acid] | 1 to 5 | –
15 | Cc1ccc(-c2nc(-n3nc(C)c(-c4cccc(F)c4)c3C(=O)O)sc2SC(C)C)cc1Cl [Compound 207, 1-(4-(3-chloro-4-methylphenyl)-5-(isopropylthio)thiazol-2-yl)-4-(3-fluorophenyl)-3-methyl-1H-pyrazole-5-carboxylic Acid] | 5 to 10 | –
16 | Cc1nn(-c2nc(-c3cc(C)c(=O)n(C)c3)c(SC(C)C)s2)c(C(=O)O)c1-c1cccc(F)c1 [Compound 208, 1-(4-(1,5-dimethyl-6-oxo-1,6-dihydropyridin-3-yl)-5-(isopropylthio)thiazol-2-yl)-4-(3-fluorophenyl)-3-methyl-1H-pyrazole-5-carboxylic Acid] | > 40 | –
17 | Cc1nn(-c2nc(-c3cc(OC(F)(F)F)ccc3Cl)c(SC(C)C)s2)c(C(=O)O)c1-c1cccc(F)c1 [Compound 209, 1-(4-(2-chloro-5-(trifluoromethoxy)phenyl)-5-(isopropylthio)thiazol-2-yl)-4-(3-fluorophenyl)-3-methyl-1H-pyrazole-5-carboxylic acid] | 10 to 25 | –
18 | Cc1nn(-c2nc(-c3cncc(C#N)c3)c(SC(C)C)s2)c(C(=O)O)c1-c1cccc(F)c1 [Compound 210, 1-(4-(5-cyanopyridin-3-yl)-5-(isopropylthio)thiazol-2-yl)-4-(3-fluorophenyl)-3-methyl-1H-pyrazole-5-carboxylic acid] | > 40 | –
19 | Cc1cc(-c2nc(-n3nc(C)c(-c4cccc(F)c4)c3C(=O)O)sc2SC(C)C)n(C)n1 [Compound 211, 1-(4-(1,3-dimethyl-1H-pyrazol-5-yl)-5-(isopropylthio)thiazol-2-yl)-4-(3-fluorophenyl)-3-methyl-1H-pyrazole-5-carboxylic acid] | > 40 | –
20 | Cc1nn(-c2nc(-c3cncnc3)c(SC(C)C)s2)c(C(=O)O)c1-c1cccc(F)c1 [Compound 212, 4-(3-fluorophenyl)-1-(5-(isopropylthio)-4-(pyrimidin-5-yl)thiazol-2-yl)-3-methyl-1H-pyrazole-5-carboxylic Acid] | > 40 | –
21 | Cc1nn(-c2nc(-c3ccc(C#N)cc3)c(SC(C)C)s2)c(C(=O)O)c1-c1cccc(F)c1 [Compound 213, 1-(4-(4-cyanophenyl)-5-(isopropylthio)thiazol-2-yl)-4-(3-fluorophenyl)-3-methyl-1H-pyrazole-5-carboxylic acid] | – | C-
22 | Cc1ccc(-c2nc(-n3nc(C)c(-c4cccc(F)c4)c3C(=O)O)sc2SC(C)C)cc1F [Compound 214, 1-(4-(3-fluoro-4-methylphenyl)-5-(isopropylthio)thiazol-2-yl)-4-(3-fluorophenyl)-3-methyl-1H-pyrazole-5-carboxylic acid] | 1 to 5 | –
23 | Cc1nn(-c2nc(-c3ccccc3C#N)c(SC(C)C)s2)c(C(=O)O)c1-c1cccc(F)c1 [Compound 215, 1-(4-(2-cyanophenyl)-5-(isopropylthio)thiazol-2-yl)-4-(3-fluorophenyl)-3-methyl-1H-pyrazole-5-carboxylic acid] | 25 to 50 | –
